Test results taken from ChEMBL document CHEMBL1134245, “Two novel and potent 3-[(o-methoxyphenyl)piperazinylethyl]-5-phenylthien” (Bioorg Med Chem Lett, 2001).

Key:
[1] = molecular target: T1, Alpha-2A adrenergic receptor (Homo sapiens, UniProt P08913); experiment: Ancillary Binding affinity towards cloned human Alpha-2A adrenergic receptor
T1 sequence (P08913 whole entry): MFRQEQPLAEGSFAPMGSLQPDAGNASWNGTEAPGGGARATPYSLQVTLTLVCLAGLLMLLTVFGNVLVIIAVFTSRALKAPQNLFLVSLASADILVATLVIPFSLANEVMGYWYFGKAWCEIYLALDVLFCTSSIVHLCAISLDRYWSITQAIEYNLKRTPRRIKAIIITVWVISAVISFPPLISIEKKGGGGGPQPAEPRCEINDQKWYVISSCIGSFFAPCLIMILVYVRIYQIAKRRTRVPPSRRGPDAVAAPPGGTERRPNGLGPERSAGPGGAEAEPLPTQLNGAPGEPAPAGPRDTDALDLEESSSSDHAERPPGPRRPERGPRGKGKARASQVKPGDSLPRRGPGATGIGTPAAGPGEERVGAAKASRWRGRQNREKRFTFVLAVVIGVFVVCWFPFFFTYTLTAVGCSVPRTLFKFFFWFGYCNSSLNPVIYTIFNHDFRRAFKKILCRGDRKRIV

[2] = molecular target: T2, Alpha-1D adrenergic receptor (Rattus norvegicus, UniProt P23944); experiment: Binding affinity towards rat Alpha-1D adrenergic receptor
T2 sequence (P23944 whole entry): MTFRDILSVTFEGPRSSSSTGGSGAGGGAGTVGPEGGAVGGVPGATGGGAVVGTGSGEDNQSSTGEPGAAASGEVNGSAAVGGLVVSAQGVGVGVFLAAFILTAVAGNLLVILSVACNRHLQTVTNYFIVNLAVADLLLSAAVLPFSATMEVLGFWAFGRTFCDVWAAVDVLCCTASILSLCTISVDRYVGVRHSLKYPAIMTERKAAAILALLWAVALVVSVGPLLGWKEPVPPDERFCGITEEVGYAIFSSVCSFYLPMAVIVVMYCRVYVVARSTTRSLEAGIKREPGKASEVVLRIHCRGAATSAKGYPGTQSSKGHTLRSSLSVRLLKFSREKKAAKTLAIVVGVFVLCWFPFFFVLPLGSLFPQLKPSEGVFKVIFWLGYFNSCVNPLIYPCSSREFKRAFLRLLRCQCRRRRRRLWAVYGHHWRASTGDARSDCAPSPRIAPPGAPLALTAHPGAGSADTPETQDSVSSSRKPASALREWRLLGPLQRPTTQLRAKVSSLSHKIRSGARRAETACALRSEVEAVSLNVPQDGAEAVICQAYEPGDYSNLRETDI

D(1A) dopamine receptor = D(1A) dopamine receptor (Rattus norvegicus, UniProt P18901); experiment: Ancillary Binding affinity to rat Dopamine receptor D1
D(1A) dopamine receptor, sequence (P18901 whole entry): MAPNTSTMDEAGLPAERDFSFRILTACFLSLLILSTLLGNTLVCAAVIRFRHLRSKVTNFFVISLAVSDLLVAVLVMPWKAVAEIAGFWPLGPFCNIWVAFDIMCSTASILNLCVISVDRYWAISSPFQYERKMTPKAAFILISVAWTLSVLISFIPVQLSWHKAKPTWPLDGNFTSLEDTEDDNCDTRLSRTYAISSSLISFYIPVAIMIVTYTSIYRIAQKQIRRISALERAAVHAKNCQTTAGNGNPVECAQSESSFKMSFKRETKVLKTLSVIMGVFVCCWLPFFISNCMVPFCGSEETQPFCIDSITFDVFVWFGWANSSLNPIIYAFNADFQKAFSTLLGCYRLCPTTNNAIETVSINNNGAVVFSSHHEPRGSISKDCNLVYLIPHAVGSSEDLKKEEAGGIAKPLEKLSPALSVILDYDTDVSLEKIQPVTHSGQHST

[3] = molecular target: T3, Alpha-1B adrenergic receptor (Rattus norvegicus, UniProt P15823); experiment: In vitro functional activity at Alpha-1B adrenergic receptor in rat spleen; type: tissue-based; settings: read-out: pA2 (converted)
T3 sequence (P15823 whole entry): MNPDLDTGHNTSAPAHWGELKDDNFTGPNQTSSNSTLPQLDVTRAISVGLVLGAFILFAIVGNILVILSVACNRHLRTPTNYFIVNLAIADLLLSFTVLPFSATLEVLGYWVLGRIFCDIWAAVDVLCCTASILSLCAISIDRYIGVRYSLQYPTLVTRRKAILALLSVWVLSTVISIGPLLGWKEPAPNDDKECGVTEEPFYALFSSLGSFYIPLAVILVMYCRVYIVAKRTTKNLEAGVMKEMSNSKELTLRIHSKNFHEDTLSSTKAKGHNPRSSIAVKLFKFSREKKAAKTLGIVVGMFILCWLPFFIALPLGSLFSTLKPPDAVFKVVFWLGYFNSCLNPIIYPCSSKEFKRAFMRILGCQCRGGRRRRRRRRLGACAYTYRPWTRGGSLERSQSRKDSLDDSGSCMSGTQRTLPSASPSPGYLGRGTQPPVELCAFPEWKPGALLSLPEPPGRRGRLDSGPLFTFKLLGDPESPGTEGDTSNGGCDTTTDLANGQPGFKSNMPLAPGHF

[4] = molecular target: T4, Alpha-1B adrenergic receptor (Homo sapiens, UniProt P35368); experiment: Binding affinity towards human Alpha-1B adrenergic receptor
T4 sequence (P35368 whole entry): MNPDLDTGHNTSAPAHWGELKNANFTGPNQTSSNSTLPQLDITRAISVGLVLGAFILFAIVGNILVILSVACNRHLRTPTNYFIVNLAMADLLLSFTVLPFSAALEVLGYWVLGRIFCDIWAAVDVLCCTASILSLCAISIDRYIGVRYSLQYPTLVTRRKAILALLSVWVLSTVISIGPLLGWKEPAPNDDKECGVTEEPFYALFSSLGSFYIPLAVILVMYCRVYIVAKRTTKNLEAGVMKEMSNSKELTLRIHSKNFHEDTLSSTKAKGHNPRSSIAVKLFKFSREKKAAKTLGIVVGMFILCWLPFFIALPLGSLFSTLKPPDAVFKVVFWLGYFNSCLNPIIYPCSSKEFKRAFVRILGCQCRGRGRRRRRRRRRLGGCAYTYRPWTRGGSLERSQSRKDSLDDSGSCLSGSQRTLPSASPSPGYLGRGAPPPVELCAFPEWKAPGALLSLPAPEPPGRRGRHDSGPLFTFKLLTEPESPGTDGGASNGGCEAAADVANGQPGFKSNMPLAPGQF

[5] = molecular target: T5, Alpha-2B adrenergic receptor (Rattus norvegicus, UniProt P19328); experiment: Ancillary Binding affinity towards rat alpha-2B receptor
T5 sequence (P19328 whole entry): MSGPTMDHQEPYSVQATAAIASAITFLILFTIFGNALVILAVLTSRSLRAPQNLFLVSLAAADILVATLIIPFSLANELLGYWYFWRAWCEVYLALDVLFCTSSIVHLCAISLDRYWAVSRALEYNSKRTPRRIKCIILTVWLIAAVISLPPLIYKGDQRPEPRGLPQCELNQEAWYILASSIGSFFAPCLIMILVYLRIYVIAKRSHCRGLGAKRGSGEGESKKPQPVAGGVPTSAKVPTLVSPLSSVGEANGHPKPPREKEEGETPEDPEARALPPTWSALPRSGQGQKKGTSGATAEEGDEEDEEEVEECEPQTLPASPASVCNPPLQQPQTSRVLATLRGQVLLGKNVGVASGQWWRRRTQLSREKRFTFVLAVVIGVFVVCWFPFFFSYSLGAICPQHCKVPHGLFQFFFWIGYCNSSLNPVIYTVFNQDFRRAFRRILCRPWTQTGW

[6] = Ancillary Binding affinity towards rat 5-hydroxytryptamine 2 receptor
[7] = molecular target: Serotonin 1 (5-HT1) receptor (Rattus norvegicus, UniProt P28564+P30940+P19327+P28565); experiment: Ancillary Binding affinity towards rat 5-hydroxytryptamine 1 receptor; type: protein assay

Row | Ki [1] [nM] | Ki [2] [nM] | Ki (D(1A) dopamine receptor) [nM] | Kb [3] [nM] | Ki [4] [nM] | Ki [5] [nM] | Ki [7] [nM] | Compound | Ki [6] [nM]
1 | 77.8 | 0.213 | 6090 | 2.04 | 4.66 | 71 | 5490 | COc1ccccc1N1CCN(CCn2c(=O)[nH]c3scc(-c4ccccc4)c3c2=O)CC1 [A-119637] | 137
2 | 82.5 | 0.17 | 12300 | 1.74 | 9.09 | 66.6 | 12300 | COc1ccccc1N1CCN(CCn2c(=O)[nH]c3scc(-c4cccc(C)c4)c3c2=O)CC1 [A-123189] | 2190
